Molecular target: T1, glucokinase (GK), residues 12-465 of the human enzyme (Homo sapiens, UniProt P35557)
T1 construct: I.D. No. 1 corresponds to residues 12-465 of glucokinase; made in house; host or cells: E. coli DH10b-Tlr
T1 sequence (P35557 with tags, fused parts or gaps isoform P35557-2): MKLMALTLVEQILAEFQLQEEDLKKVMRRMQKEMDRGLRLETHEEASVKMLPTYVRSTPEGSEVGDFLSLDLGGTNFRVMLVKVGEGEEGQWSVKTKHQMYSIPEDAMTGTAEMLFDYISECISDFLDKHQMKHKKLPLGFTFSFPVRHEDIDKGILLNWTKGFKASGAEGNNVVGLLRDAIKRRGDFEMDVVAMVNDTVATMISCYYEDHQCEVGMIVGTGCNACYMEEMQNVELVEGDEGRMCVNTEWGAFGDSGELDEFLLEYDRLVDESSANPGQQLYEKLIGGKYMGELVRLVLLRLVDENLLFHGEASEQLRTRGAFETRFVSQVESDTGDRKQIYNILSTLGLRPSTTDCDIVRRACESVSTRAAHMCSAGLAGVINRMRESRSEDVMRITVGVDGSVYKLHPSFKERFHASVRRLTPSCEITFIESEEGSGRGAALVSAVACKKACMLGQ
Test: Enzymatic glucokinase activity assay (KinaseGlo luminescence, ATP consumption)
Assay type: biochemical
Settings: 5 μM ATP, 5 mM Glucose; for EC50: GK activation, Kact = concentration giving 50% of the maximal increase in GK activity, read-out: pKact; for Emax: calculated maximal gain in GK enzyme activity at a saturating concentration of the compound, read-out: % ACTmax
Description: The activity of compounds as glucokinase activators may be assayed in vitro, in vivo or in a cell line. Provided below is an enzymatic glucokinase activity assay.
Purified glucokinase may be obtained as follows. DNA encoding residues 12-465 of the full-length sequence of the human enzyme may be amplified by PCR and cloned into the HindIII and EcoRI sites of pFLAG-CTC (Sigma). SEQ. I.D. No. 1 corresponds to residues 12-465 of glucokinase.
The expression of recombinant glucokinase protein may be carried out by transformation and growth of DH10b-Tlr E. coli cells incorporating the (pFLAG-CTC) plasmid in LB media. Protein expression can be induced in this system by the addition of IPTG to the culture medium.
Recombinant protein may be isolated from cellular extracts by passage over Sepharose Q Fast Flow resin (Pharmacia). This partially purified GK extract may then be further purified by a second passage over Poros HQ 10 (Applied Biosystems). The purity of GK may be determined on denaturing SDS-PAGE gel. Purified GK may then be concentrated to a final concentration of 20.0 mg/ml. After flash freezing in liquid nitrogen, the proteins can be stored at −78° C. in a buffer containing 25 mM TRIS-HCl pH 7.6, 50 mM NaCl, and 0.5 mM TCEP.
The activation properties of compounds for GK may be determined using a black 384-well-plate format under the following reaction conditions: 25 mM Hepes pH 7.2, 25 mM NaCl, 10 mM MgCl2, 0.01% Brij35, 1 mM DTT, 5 μM ATP, 5 mM Glucose 2% DMSO. The amount of ATP consumed may be determined quantitatively by addition of equal volume of luciferase reagent (luciferase+beetle luciferin—KinaseGlo Luminescent Kinase Assay kit from Promega). The luminescence intensity may be measured by using the Analyst HT from LJL Biosystems.
The assay reaction may be initiated as follows: 4 μl of substrate mixture (12.5 μM ATP and 12.5 mM Glucose) was added to each well of the plate, followed by the addition of 2 μl of activator (2 fold serial dilutions for 11 data points for each activator) containing 10% DMSO. 4 μL of 1.25 nM GK solution may be added to initiate the reaction. The reaction mixture may then be incubated at room temperature for 60 min, and quenched and developed by addition of 10 μL of luciferase reagent. Luminescence intensities of the resulting reaction mixtures may be measured after a 10 min incubation at room temperature. The luminescence intensity may be measured by using the Analyst HT from LJL Biosystems.
pKact and % ACTmax values may be calculated by non-linear curve fitting of the compound concentrations and luminescence intensities to a standard inhibition/activation equation.

Row | Structure (SMILES) | EC50 [nM] | Emax [%]
1 | Cc1c(Cl)cccc1S(=O)(=O)N1CCN([C@@H](CC2CCCCC2)C(=O)Nc2nccs2)C(=O)C1 [Example 51, (S)-2-(4-(3-chloro-2-methylphenylsulfonyl)-2-oxopiperazin-1-yl)-3-cyclohexyl-N-(thiazol-2-yl)propanamide] | 1580 to 2510 | 74.1 to 97
2 | O=C(Nc1nccs1)[C@H](CC1CCCCC1)N1CCN(S(=O)(=O)Cc2ccc(F)cc2)CC1=O [Example 68, (S)-3-cyclohexyl-2-(4-(4-fluorobenzylsulfonyl)-2-oxopiperazin-1-yl)-N-(thiazol-2-yl)propanamide] | 794 to 1260 | 97.1 to 107
3 | CC(=O)N1CCC(CC(C(=O)Nc2nccs2)N2CCN(S(=O)(=O)C3CC3)CC2=O)C1 (stereo not shown) [Example 20, 3-(1-acetylpyrrolidin-3-yl)-2-(4-(cyclopropylsulfonyl)-2-oxopiperazin-1-yl)-N-(thiazol-2-yl)propanamide] | 794 to 1260 | 108 to 119
4 | O=C(Nc1ncc(F)s1)[C@H](CC1CCOCC1)N1CCN(S(=O)(=O)c2cccc(F)c2)CC1=O [Example 152, (S)-2-(4-(3-fluorophenylsulfonyl)-2-oxopiperazin-1-yl)-N-(5-fluorothiazol-2-yl)-3-(tetrahydro-2H-pyran-4-yl)propanamide] | ≤ 631 | ≥ 119
5 | Cc1ccc(S(=O)(=O)N2CCN([C@@H](CC3CCCCC3)C(=O)Nc3nccs3)C(=O)C2)c(F)c1 [Example 222, (S)-3-cyclohexyl-2-(4-(2-fluoro-4-methylphenylsulfonyl)-2-oxopiperazin-1-yl)-N-(thiazol-2-yl)propanamide] | ≤ 631 | 108 to 119
6 | O=C(Nc1nccs1)[C@H](CC1CCCCC1)N1CCN(C(=O)Nc2ccc(C(F)(F)F)cc2)CC1=O [Example 142, (S)-4-(3-cyclohexyl-1-oxo-1-(thiazol-2-ylamino)propan-2-yl)-3-oxo-N-(4-(trifluoromethyl)phenyl)piperazine-1-carboxamide] | ≥ 3160 | ≤ 74
7 | O=C(Nc1nccs1)[C@H](CC1CCCCC1)N1CCN(S(=O)(=O)c2cccc(OC(F)F)c2)CC1=O [Example 106, (S)-3-cyclohexyl-2-(4-(3-(difluoromethoxy)phenylsulfonyl)-2-oxopiperazin-1-yl)-N-(thiazol-2-yl)propanamide] | 794 to 1260 | 108 to 119
8 | CS(=O)(=O)N1CCN([C@@H](CC2CCCCC2)C(=O)Nc2nccs2)C(=O)C1 [Example 1, (S)-3-cyclohexyl-2-(4-(methylsulfonyl)-2-oxopiperazin-1-yl)-N-(thiazol-2-yl)propanamide] | 1580 to 2510 | 74.1 to 97
9 | Cc1ccc(F)cc1S(=O)(=O)N1CCN([C@@H](CC2CCCCC2)C(=O)Nc2nccs2)C(=O)C1 [Example 191, (S)-3-cyclohexyl-2-(4-(5-fluoro-2-methylphenylsulfonyl)-2-oxopiperazin-1-yl)-N-(thiazol-2-yl)propanamide] | ≤ 631 | 108 to 119
10 | COc1ccc(NC(=S)N2CCN([C@@H](CC3CCCCC3)C(=O)Nc3nccs3)C(=O)C2)cc1 [Example 86, (S)-3-cyclohexyl-2-(4-(4-methoxyphenylcarbamothioyl)-2-oxopiperazin-1-yl)-N-(thiazol-2-yl)propanamide] | ≥ 3160 | 97.1 to 107
11 | O=C(Nc1nccs1)[C@H](CC1CCCCC1)N1CCN(S(=O)(=O)C2CCCCC2)CC1=O [Example 227] | ≤ 631 | ≥ 119
12 | Cc1ccccc1S(=O)(=O)N1CCN([C@@H](CC2CCCCC2)C(=O)Nc2nccs2)C(=O)C1 [Example 218, (S)-3-cyclohexyl-2-(2-oxo-4-(o-tolylsulfonyl)piperazin-1-yl)-N-(thiazol-2-yl)propanamide] | 794 to 1260 | 108 to 119
13 | O=C(Nc1nccs1)[C@H](CC1CCCCC1)N1CCN(S(=O)(=O)Cc2ccc(Cl)cc2)CC1=O [Example 69] | 1580 to 2510 | 97.1 to 107
14 | O=C(Nc1nccs1)[C@H](CC1CCCCC1)N1CCN2[C@@H](CCS2(=O)=O)C1=O [Example 31, (S)-3-Cyclohexyl-N-thiazol-2-yl-2-((S)-1,1,4-trioxo-hexahydro-1λ*6*-thia-5,7a-diaza-inden-5-yl)-propionamide] | ≥ 3160 | 74.1 to 97
15 | O=C(Nc1nccs1)[C@H](CC1CCCCC1)N1CCN(S(=O)(=O)c2cccc3ccccc23)CC1=O [Example 65, (S)-3-cyclohexyl-2-(4-(naphthalen-1-ylsulfonyl)-2-oxopiperazin-1-yl)-N-(thiazol-2-yl)propanamide] | 1580 to 2510 | ≤ 74
16 | O=C(Nc1nccs1)[C@H](CC1CCCCC1)N1CCN(C(=S)Nc2ccccc2OC(F)(F)F)CC1=O [Example 136, (S)-3-cyclohexyl-2-(2-oxo-4-(2-(trifluoromethoxy)phenylcarbamothioyl)piperazin-1-yl)-N-(thiazol-2-yl)propanamide] | 794 to 1260 | ≥ 119
17 | O=C(Nc1nccs1)[C@H](CC1CCCCC1)N1CCN(S(=O)(=O)c2ccc(-c3nsc(Cl)n3)s2)CC1=O [Example 165, (S)-2-(4-(5-(5-chloro-1,2,4-thiadiazol-3-yl)thiophen-2-ylsulfonyl)-2-oxopiperazin-1-yl)-3-cyclohexyl-N-(thiazol-2-yl)propanamide] | 794 to 1260 | ≤ 74
18 | O=C(Nc1nccs1)[C@H](CC1CCCCC1)N1CCN(C(=O)Nc2ccc(Cl)c(Cl)c2)CC1=O [Example 131, (S)-4-(3-cyclohexyl-1-oxo-1-(thiazol-2-ylamino)propan-2-yl)-N-(3,4-dichlorophenyl)-3-oxopiperazine-1-carboxamide] | ≥ 3160 | ≤ 74
19 | O=C(Nc1nccs1)[C@H](CC1CCCCC1)N1CCN(S(=O)(=O)c2c(Cl)nc3sccn23)CC1=O [Example 164, (S)-2-(4-(6-chloroimidazo[2,1-b]thiazol-5-ylsulfonyl)-2-oxopiperazin-1-yl)-3-cyclohexyl-N-(thiazol-2-yl)propanamide] | ≥ 3160 | 108 to 119
20 | O=C(Nc1nccs1)[C@H](CC1CCCCC1)N1CCN(S(=O)(=O)C2CCCC2)CC1=O [Example 113, (S)-3-cyclohexyl-2-(4-(cyclopentylsulfonyl)-2-oxopiperazin-1-yl-N-thiazol-2-yl)propanamide] | ≤ 631 | ≥ 119
21 | O=C(Nc1nccs1)[C@H](CC1CCCCC1)N1CCN(S(=O)(=O)c2ccc(OC(F)F)cc2)CC1=O [Example 70, (S)-3-cyclohexyl-2-(4-(4-(difluoromethoxy)phenylsulfonyl)-2-oxopiperazin-1-yl)-N-(thiazol-2-yl)propanamide] | 1580 to 2510 | 74.1 to 97
22 | O=C(Nc1nccs1)[C@H](CC1CCCCC1)N1CCN(S(=O)(=O)c2cccc3nsnc23)CC1=O [Example 171, (S)-2-(4-(benzo[c][1,2,5]thiadiazol-4-ylsulfonyl)-2-oxopiperazin-1-yl)-3-cyclohexyl-N-(thiazol-2-yl)propanamide] | 794 to 1260 | 97.1 to 107
23 | O=C(Nc1nccs1)[C@H](CC1CCCCC1)N1CCN(S(=O)(=O)c2cccc(F)c2)CC1=O [Example 61, (S)-3-cyclohexyl-2-(4-(3-fluorophenylsulfonyl)-2-oxopiperazin-1-yl)-N-(thiazol-2-yl)propanamide] | ≤ 631 | 108 to 119

From patent US8173645B2 (Takeda San Diego, Inc., priority 2007, dated 2012)
